Assay results taken from publication PMC2263054, “Functional evolution of the vitamin D and pregnane X receptors” (BMC Evolutionary Biology, 2007).

Experiments:
Human VDR = target: T1, Human VDR (Homo sapiens, UniProt P11473); assay: luciferase reporter transactivation assay in HepG2-NTCP cells, full-length hVDR with CYP3A4-PXRE-Luc; details: HepG2-NTCP cells, luciferase reporter; unit not given; also cells saying No effect
T1 sequence (P11473 1-427): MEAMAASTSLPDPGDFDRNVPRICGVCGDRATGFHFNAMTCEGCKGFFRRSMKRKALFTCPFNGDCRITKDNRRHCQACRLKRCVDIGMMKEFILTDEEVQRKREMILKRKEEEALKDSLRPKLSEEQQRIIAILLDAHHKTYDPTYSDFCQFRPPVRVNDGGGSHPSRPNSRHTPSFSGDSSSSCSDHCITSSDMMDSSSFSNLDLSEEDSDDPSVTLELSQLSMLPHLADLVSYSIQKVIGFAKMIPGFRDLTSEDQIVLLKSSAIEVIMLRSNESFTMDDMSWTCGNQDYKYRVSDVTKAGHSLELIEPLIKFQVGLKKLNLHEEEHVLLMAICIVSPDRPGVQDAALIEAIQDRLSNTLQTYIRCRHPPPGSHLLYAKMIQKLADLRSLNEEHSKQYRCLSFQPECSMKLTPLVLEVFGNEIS

Mouse VDR = target: T2, Mouse VDR (Mus musculus, UniProt P48281); assay: luciferase reporter transactivation assay in HepG2-NTCP cells, full-length mVDR with CYP3A4-PXRE-Luc; details: HepG2-NTCP cells, luciferase reporter; unit not given; also cells saying No effect
T2 sequence (P48281 1-422): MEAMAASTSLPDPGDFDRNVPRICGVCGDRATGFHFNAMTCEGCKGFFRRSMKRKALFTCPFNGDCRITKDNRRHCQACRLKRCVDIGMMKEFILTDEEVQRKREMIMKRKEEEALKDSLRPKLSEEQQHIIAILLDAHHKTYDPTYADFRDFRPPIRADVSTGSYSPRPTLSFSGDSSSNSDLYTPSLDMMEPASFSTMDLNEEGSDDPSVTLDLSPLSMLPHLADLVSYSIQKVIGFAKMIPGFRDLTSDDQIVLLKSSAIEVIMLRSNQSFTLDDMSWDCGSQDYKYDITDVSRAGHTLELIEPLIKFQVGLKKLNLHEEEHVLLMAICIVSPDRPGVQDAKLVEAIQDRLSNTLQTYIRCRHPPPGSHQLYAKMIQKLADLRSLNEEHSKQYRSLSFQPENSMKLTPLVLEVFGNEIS

Xenopus laevis VDR = target: T3, Xenopus laevis VDR (Xenopus laevis, UniProt O13124); assay: luciferase reporter transactivation assay in HepG2-NTCP cells, GAL4/xlVDR LBD chimera with tk-UAS-Luc; type: cell-based; details: HepG2-NTCP cells, luciferase reporter; unit not given; also cells saying No effect
T3 sequence (O13124 90-422): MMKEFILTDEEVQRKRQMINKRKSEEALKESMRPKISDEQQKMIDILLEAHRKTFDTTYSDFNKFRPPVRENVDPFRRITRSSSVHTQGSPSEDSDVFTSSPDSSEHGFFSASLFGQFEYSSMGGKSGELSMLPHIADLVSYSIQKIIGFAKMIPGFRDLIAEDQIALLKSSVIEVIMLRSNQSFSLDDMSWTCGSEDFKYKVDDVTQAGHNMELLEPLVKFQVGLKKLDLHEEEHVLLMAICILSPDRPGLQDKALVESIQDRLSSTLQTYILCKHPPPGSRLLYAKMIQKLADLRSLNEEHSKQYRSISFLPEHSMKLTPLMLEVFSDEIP

Zebrafish VDR = target: T4, Zebrafish VDR (Danio rerio, UniProt Q9PTN2); assay: luciferase reporter transactivation assay in HepG2-NTCP cells, GAL4/zfVDR LBD chimera with tk-UAS-Luc; type: cell-based; details: HepG2-NTCP cells, luciferase reporter; unit not given; also cells saying No effect
T4 sequence (Q9PTN2 121-453): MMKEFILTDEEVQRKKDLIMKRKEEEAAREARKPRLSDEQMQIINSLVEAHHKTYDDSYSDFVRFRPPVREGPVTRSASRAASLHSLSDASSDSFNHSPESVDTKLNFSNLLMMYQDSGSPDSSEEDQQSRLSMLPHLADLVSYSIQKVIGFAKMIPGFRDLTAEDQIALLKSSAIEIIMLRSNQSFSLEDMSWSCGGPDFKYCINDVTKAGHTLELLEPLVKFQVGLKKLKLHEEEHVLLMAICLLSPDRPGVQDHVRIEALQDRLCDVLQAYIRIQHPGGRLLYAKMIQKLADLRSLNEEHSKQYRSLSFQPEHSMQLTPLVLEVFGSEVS

Sea lamprey VDR = target: T5, Sea lamprey VDR (Petromyzon marinus, UniProt Q7ZZY9); type: cell-based; details: HepG2-NTCP cells, luciferase reporter; unit not given; also cells saying No effect
T5 sequence (Q7ZZY9 92-406): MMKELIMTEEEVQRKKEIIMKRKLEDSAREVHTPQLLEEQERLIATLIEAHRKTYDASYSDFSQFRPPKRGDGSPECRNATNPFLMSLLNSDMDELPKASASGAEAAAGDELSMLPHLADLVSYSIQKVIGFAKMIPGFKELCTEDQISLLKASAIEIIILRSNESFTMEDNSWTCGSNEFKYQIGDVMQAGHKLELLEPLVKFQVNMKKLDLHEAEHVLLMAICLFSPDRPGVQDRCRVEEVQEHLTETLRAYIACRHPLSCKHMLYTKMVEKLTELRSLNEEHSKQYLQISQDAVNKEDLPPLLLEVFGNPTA

[1] = tested on: 6β- and 12α-hydroxylation of testosterone; assay: testosterone hydroxylation (HPLC) in African clawed frog primary hepatocytes; type: cell-based, Xenopus laevis; details: relative to vehicle control
Description: Xenopus laevis primary hepatocytes were cultured by a protocol adapted from a published report. Frogs are sacrificed with MS-222, rinsed with 70% ethanol, and the liver lobes perfused via the heart, initially with 375 mL Barth (88 mM NaCl, 1 mM K2SO4, and 10 mM HEPES-NaOH, pH 7.4) containing 0.82 mM MgCl2 and 0.1 mg/mL heparin, and then with 25 mL Barth containing 2.22 mM Ca(NO3)2, 2.74 mM CaCl2, and 200 U/mL type I collagenase (Worthington Chemicals, Lakewood, NJ). Livers are minced to fine pieces in 12.5 mL Barth-collagenase solution and then incubated for 10 min at room temperature, periodically disaggregating the liver pieces with a Pasteur pipette. The liver cells are then placed on a shaking incubator for 5 min at room temperature, followed by another 10 min of periodic pipetting to complete disaggregation. Cells are then filtered through a 130 μm Nitex nylon mesh (Fisher Scientific), following by spinning at 500 g for 5 min at 4°C. The supernatant is then aspirated and diluted to 50 mL with Barth plus MgCl2 and then allowed to settle while cooled in ice for 30 min. The supernatant is removed, and the cellular pellet is resuspended and subjected to one more round of nylon mesh filtration, dilution in Barth plus MgCl2, and settling while cooled in ice. The supernatant is removed and the remaining cells are washed once with Barth plus MgCl2 and then centrifuged at 500 g for 5 min at 4°C. The cells are then resuspended in 0.6 × Coon's Modified Ham's F-12 medium (Invitrogen) supplemented with 0.1 × Barth (88 mM NaCl, 1 mM K2SO4, 10 mM HEPES), 200 U/mL penicillin G, 100 μg/mL streptomycin sulfate, 2 mM glutamine, 0.2% glucose, and 10 μg/mL bovine insulin (Calbiochem), with the final pH adjusted to 7.5. […] Cells are cultured at 20°C in ambient atmosphere.
Testosterone metabolites were identified and quantitated by HPLC. […] The supernatant was then injected into the HPLC.

Ciona VDR/PXR = details: HepG2-NTCP cells, luciferase reporter; unit not given; also cells saying No effect

Row | SMILES | Human VDR EC50 ± SD (Human VDR) | Mouse VDR EC50 ± SD (Mouse VDR) | Xenopus VDR EC50 ± SD (Xenopus laevis VDR) | Zebrafish VDR EC50 ± SD (Zebrafish VDR) | Sea lamprey VDR EC50 ± SD (Sea lamprey VDR) | effect on 6β- and 12α-hydroxylation of testosterone [1] | Ciona VDR/PXR EC50 ± SD (Ciona VDR/PXR)
1 | C[C@H](CCCC(CO)COS(=O)(=O)O)[C@H]1CC[C@H]2[C@@H]3[C@H](O)C[C@H]4C[C@H](O)CC[C@]4(C)[C@H]3C[C@H](O)[C@]12C (stereo partly drawn) [5α-Cyprinol 27-sulfate] | No effect | No effect | No effect | No effect | No effect | neither activity was substantially increased relative to vehicle control | No effect
2 | C[C@H](CCCC(CO)CO)[C@H]1CC[C@H]2[C@@H]3[C@H](O)C[C@H]4C[C@H](O)CC[C@]4(C)[C@H]3C[C@H](O)[C@]12C [5α-Cyprinol, 5α-cholestan-3α,7α,12α,26,27-pentol] | No effect | No effect | No effect | No effect | No effect | neither activity was substantially increased relative to vehicle control | No effect
